{"source": "patent EP1166784B1", "about": "“INHIBITION OF VASCULAR RESTENOSIS AFTER ANGIOPLASTY” (Meiji Seika Kaisha, Ltd., priority 1999, dated 2000)", "key": {"[1]": {"system": "balloon-injured site of the abdominal aorta blood vessel", "experiment": "PDT treatment in rabbit model with arterial injury (balloon catheter), pathological study (Example 1)", "format": "in vivo", "conditions": "2.5 mg/kg i.v., laser 664 nm, 50 or 100 J/cm^2, optical fiber in inflated 2F balloon catheter", "experimental": "Mono-L-aspartylchlorin e6 tetrasodium salt (NPe6) was intravenously administered at a dose of 2.5 mg/kg to a rabbit weighing about 4 kg. A commercially available 2F balloon catheter was immediately then inserted through the femoral artery into the abdominal aorta of rabbit. Thereafter, there are repeated operations of drawing out from the blood vessel the balloon catheter with the inflated balloon, inserting the balloon catheter again into the blood vessel, and drawing out the balloon catheter with the inflated balloon, whereby a rabbit model with an arterial injury was produced. This method for producing the rabbit model having the arterial injury at the blood vessel inner wall was in accordance with the method of Hsiang et al. (see Ann. Vasc. Surg., Vol.9, p.80-86, 1995). At the end of 3 hours after the administration of NPe6, an optical fiber for irradiation of laser (made of an acrylic polymer filament having an external diameter of 0.5 mm and provided with the emitter part of 15mm in length) was inserted into the hollow hole of the 2F balloon catheter which had been inserted in and kept remained at the balloon-injured site of the abdominal aorta blood vessel. The balloon of the catheter was then inflated. Laser light of 664 nm wavelength was passed into and transmitted through the optical fiber to make the laser light to irradiate the abdominal artery at the balloon-injured site, and thereby to carry out the PDT treatment of said site at a laser fluence of 50 or 100 J/cm^2. The laser (of the wavelength of 664 nm) used was emitted from a laser-generating source of semi-conductor type known for PDT. At the respective ends of four days, two weeks and four weeks after the above PDT treatment so made, the site having received the PDT treatment was pathologically studied."}, "[2]": {"system": "intimal thickening induced at the balloon-intervented and injured site of blood vessel", "experiment": "Suppressive effect of PDT treatment on intimal thickening in rabbit model with arterial injury, image analysis of neo-intima and tunica media areas (Example 2)", "format": "in vivo", "conditions": "2.5 mg/kg i.v., laser 664 nm 3 hours after administration, two weeks after PDT; for Inhibition rate (%): versus untreated group", "experimental": "Mono-L-aspartylchlorin e6 tetrasodium salt was intravenously administered at a dose of 2.5 mg/kg to three rabbits each weighing about 4 kg. […] The neo-intima (9) had newly been produced from the inner side of the tunica media (8) due to the injury as induced by the balloon-intervention. At the end of three hours after the administration of mono-L-aspartylchlorin e6 tetrasodium salt, a device comprising an optical fiber for the irradiation of laser was inserted in the blood vessel of rabbit having the intimal thickening, to arrive at the balloon-injured site of the blood vessel. In order to estimate in comparison the achievable suppressive effects of the PDT treatments against the vascular restenosis, the above test procedures were conducted with employing two different types of the laser-irradiating devices comprising the optical fiber for the irradiation of laser, a first one type of which two different devices was such a laser-irradiating device that comprised an optical fiber as integrated with a balloon catheter and that is shown in Figure 1 of the appended drawing. The other type of the laser-irradiating device employed was comprising simply the conventional type of cylindrical optical fiber. In the tests, either one of these two different types of the laser-irradiating devices containing an optical fiber was inserted into the abdominal aorta under test. Under roentgenoscopy, an X-ray-shielding marker which had been provided in the laser-irradiating optical fiber so inserted was observed as a guide. This guide was used so that the position of the optical fiber device as inserted could be adjusted so as to be located in a position optimal to make the laser to irradiate selectively just the balloon-injured site of the abdominal aorta under test. Then, the irradiation of the laser through said optical fiber was carried out at a laser fluence of 50 or 100 J/cm^2 by means of a semiconductor generator for generating the laser of a wavelength of 664 nm. […] From the photographies of showing the traverse cross-section of histopathologically stained test specimens as collected from the above PDT-treated site of the blood vessel, the area of the tunica media and the area of the neo-intima of the test specimens of the blood vessel under test were measured by an image analyzer. The ratio of the area of the tunica media to the area of the neo-intima of the blood vessel specimens was calculated. […]"}, "[3]": {"conditions": "conventional type of cylindrical optical fiber device, 100 J/cm^2"}, "[4]": {"conditions": "optical fiber device integrated with the balloon catheter, 50 J/cm^2"}}, "data": [{"compound": "C=Cc1c(C)c2cc3nc(c(CC(=O)N[C@@H](CC(=O)[O-])C(=O)[O-])c4[nH]c(cc5nc(cc1[nH]2)C(C)=C5CC)c(C)c4C(=O)[O-])[C@@H](CCC(=O)[O-])[C@@H]3C.[Na+].[Na+].[Na+].[Na+]", "note": "[NPe6, Mono-L-aspartylchlorin e6 tetrasodium salt]", "values": [{"measurement": "injuries in the regions of the blood vessel participating in the entire construction of the blood vessel (pathological findings)", "setting": "[1]; 2 and 4 weeks after PDT", "value": "no injuries were developed"}, {"measurement": "intimal thickening as produced by the vascular neo-intima formed at the PDT-treated site (pathological findings)", "setting": "[1]; 2 and 4 weeks after PDT", "value": "inhibited"}, {"measurement": "cells of the tunica media of the blood vessel at the PDT-treated site (pathological findings)", "setting": "[1]; four days after PDT", "value": "destroyed in a broad region of ranging from the inner wall side towards the outer wall side of the blood vessel"}, {"measurement": "Ratio of area of neointima to area of tunica media in blood vessel", "setting": "[2]; [3]", "value": "0.87±0.37"}, {"measurement": "Inhibition rate (%)", "setting": "[2]; [3]", "value": 28.7, "unit": "%"}, {"measurement": "Ratio of area of neointima to area of tunica media in blood vessel", "setting": "[2]; [4]", "value": "0.68±0.21"}, {"measurement": "Inhibition rate (%)", "setting": "[2]; [4]", "value": 44.3, "unit": "%"}]}]}
